According to article PMC10397291, “Molecular pathway and structural mechanism of human oncochannel TRPV6 inhibition by the phytocannabinoid tetrahydrocannabivarin” (Nature Communications, 2023):
Positions count from the first letter of the chain named. Values after ≈ are worked out from the molar mass of the structure shown. Values joined by “and” are separate entries in the source; they are usually repeats but may differ in a detail not shown here. Equal values may be shown once.

What was measured:
F493A mutant hTRPV6 = molecular target: T1, F493A mutant hTRPV6 (Homo sapiens, UniProt Q9H1D0, F533A); assay: Fura-2 AM Ca2+ uptake, F493A mutant hTRPV6; type: cell-based
T1 construct: Full-length wild-type or mutant human TRPV6 was expressed in HEK 293S cells as described above; expressed in transfected cells; host or cells: HEK 293S GnTI- (baculovirus/BacMam transduction)
T1 sequence (Q9H1D0 41-765 F533A limits assumed): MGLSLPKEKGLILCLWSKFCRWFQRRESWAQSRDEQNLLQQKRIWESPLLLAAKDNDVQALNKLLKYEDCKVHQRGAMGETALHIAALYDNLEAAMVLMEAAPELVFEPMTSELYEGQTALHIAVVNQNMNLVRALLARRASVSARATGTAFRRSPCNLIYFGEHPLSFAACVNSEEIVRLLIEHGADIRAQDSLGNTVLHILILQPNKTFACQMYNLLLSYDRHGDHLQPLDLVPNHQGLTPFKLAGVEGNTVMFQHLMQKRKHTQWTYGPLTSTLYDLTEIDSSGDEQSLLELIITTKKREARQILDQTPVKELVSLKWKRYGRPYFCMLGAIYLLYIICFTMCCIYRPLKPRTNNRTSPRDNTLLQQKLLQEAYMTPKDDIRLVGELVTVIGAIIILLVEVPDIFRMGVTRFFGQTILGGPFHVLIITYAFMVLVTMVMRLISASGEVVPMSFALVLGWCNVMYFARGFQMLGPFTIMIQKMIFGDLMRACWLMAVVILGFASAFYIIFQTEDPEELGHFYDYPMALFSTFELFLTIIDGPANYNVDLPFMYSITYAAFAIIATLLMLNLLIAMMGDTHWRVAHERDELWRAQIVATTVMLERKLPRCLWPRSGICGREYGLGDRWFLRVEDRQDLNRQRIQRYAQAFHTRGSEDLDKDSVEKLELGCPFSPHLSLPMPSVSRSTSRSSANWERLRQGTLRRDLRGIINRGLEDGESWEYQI

L568Q mutant hTRPV6 = molecular target: T2, L568Q mutant hTRPV6 (Homo sapiens, UniProt Q9H1D0, L608Q); assay: Fura-2 AM Ca2+ uptake, L568Q mutant hTRPV6; type: cell-based
T2 construct: Full-length wild-type or mutant human TRPV6 was expressed in HEK 293S cells as described above; expressed in transfected cells; host or cells: HEK 293S GnTI- (baculovirus/BacMam transduction)
T2 sequence (Q9H1D0 41-765 L608Q limits assumed): T1 sequence (Q9H1D0 41-765 F533A limits assumed) with A493F, L568Q

[1] = Solubility of stock in DMSO; type: physicochemical; conditions: organic solvent or mixture
T567A mutant hTRPV6 = molecular target: T3, T567A mutant hTRPV6 (Homo sapiens, UniProt Q9H1D0, T607A); assay: Fura-2 AM Ca2+ uptake, T567A mutant hTRPV6; type: cell-based
T3 construct: Full-length wild-type or mutant human TRPV6 was expressed in HEK 293S cells as described above; expressed in transfected cells; host or cells: HEK 293S GnTI- (baculovirus/BacMam transduction)
T3 sequence (Q9H1D0 41-765 T607A limits assumed): T1 sequence (Q9H1D0 41-765 F533A limits assumed) with A493F, T567A

[2] = tested on: non-transfected HEK293 cells; assay: Fura-2 AM measurements in non-transfected cells (Control, non-specific effects); type: cell-based

Structure (SMILES): CCCc1cc(O)c2c(c1)OC(C)(C)[C@@H]1CCC(C)=C[C@@H]21 [THCV, tetrahydrocannabivarin]
- IC50 (F493A mutant hTRPV6): 2.7 ± 0.23 µM
- fraction of uninhibited channels (F493A mutant hTRPV6; F493A, high THCV concentration): ~ 20%
- IC50 (L568Q mutant hTRPV6): 62.1 ± 18.2 µM
- solubility [1]: 50 mM (≈ 14.3 mg/mL)
- IC50 (T567A mutant hTRPV6): 12 ± 0.7 µM
- change in F340/F380 evoked by 10 mM Ca2+ (T567A mutant hTRPV6; 1 μM THCV, replicates): 1.267
- change in F340/F380 evoked by 10 mM Ca2+ ([2]; 1 μM THCV, non-transfected Control for L490W): 0.594 and 0.640 and 0.727 and 0.615 and 0.755 and 0.577 and 0.626 and 0.554
- change in F340/F380 evoked by 10 mM Ca2+ ([2]; 1 μM THCV, non-transfected Control for L568Q): 0.236 and 0.186 and 0.230 and 0.259
- change in F340/F380 evoked by 10 mM Ca2+ ([2]; 1 μM THCV, non-transfected Control for WT): 0.249 and 0.167 and 0.182 and 0.175 and 0.226 and 0.257 and 0.284
- change in F340/F380 evoked by 10 mM Ca2+ ([2]; 3 μM THCV, non-transfected Control for A561W): 0.179 and 0.153 and 0.129 and 0.145
- change in F340/F380 evoked by 10 mM Ca2+ ([2]; 3 μM THCV, non-transfected Control for L490W): 0.538 and 0.676 and 0.767 and 0.653 and 0.598 and 0.662 and 0.719 and 0.624
- change in F340/F380 evoked by 10 mM Ca2+ ([2]; 3 μM THCV, non-transfected Control for L568Q): 0.250 and 0.211 and 0.221 and 0.198
- change in F340/F380 evoked by 10 mM Ca2+ ([2]; 3 μM THCV, non-transfected Control for WT): 0.179 and 0.155 and 0.221 and 0.163 and 0.257 and 0.246 and 0.260 and 0.248
- change in F340/F380 evoked by 10 mM Ca2+ ([2]; 10 μM THCV, non-transfected Control for A561W): 0.140 and 0.130 and 0.114 and 0.151
- change in F340/F380 evoked by 10 mM Ca2+ ([2]; 10 μM THCV, non-transfected Control for L490W): 0.786 and 0.674 and 0.776 and 0.581 and 0.711 and 0.793 and 0.539 and 0.598
- change in F340/F380 evoked by 10 mM Ca2+ ([2]; 10 μM THCV, non-transfected Control for L568Q): 0.183 and 0.286 and 0.214 and 0.195
- change in F340/F380 evoked by 10 mM Ca2+ ([2]; 10 μM THCV, non-transfected Control for WT): 0.157 and 0.141 and 0.174 and 0.159 and 0.185 and 0.222 and 0.233 and 0.195
- change in F340/F380 evoked by 10 mM Ca2+ ([2]; 30 μM THCV, non-transfected Control for A561W): 0.167 and 0.140 and 0.127 and 0.125
- change in F340/F380 evoked by 10 mM Ca2+ ([2]; 30 μM THCV, non-transfected Control for L490W): 0.558 and 0.549 and 0.721 and 0.691 and 0.606 and 0.572 and 0.500 and 0.698
- change in F340/F380 evoked by 10 mM Ca2+ ([2]; 30 μM THCV, non-transfected Control for L568Q): 0.187 and 0.206 and 0.233
- change in F340/F380 evoked by 10 mM Ca2+ ([2]; 30 μM THCV, non-transfected Control for WT): 0.137 and 0.141 and 0.135 and 0.156 and 0.185 and 0.188 and 0.221 and 0.228
- change in F340/F380 evoked by 10 mM Ca2+ ([2]; 100 μM THCV, non-transfected Control for A561W): 0.497
- change in F340/F380 evoked by 10 mM Ca2+ ([2]; 100 μM THCV, non-transfected Control for L490W): 0.627 and 0.939 and 0.740 and 0.797 and 0.911 and 0.811 and 1.132 and 0.767
- change in F340/F380 evoked by 10 mM Ca2+ ([2]; 100 μM THCV, non-transfected Control for WT): 0.644
